In ChEMBL document CHEMBL4414667, “Uncarialins A-I, Monoterpenoid Indole Alkaloids from Uncaria rhynchophylla as Natural Agonists of the 5-HT1A Receptor” (J Nat Prod, 2019):

Target: T1, 5-hydroxytryptamine receptor 1A (Homo sapiens, UniProt P08908)
T1 sequence (P08908 whole entry): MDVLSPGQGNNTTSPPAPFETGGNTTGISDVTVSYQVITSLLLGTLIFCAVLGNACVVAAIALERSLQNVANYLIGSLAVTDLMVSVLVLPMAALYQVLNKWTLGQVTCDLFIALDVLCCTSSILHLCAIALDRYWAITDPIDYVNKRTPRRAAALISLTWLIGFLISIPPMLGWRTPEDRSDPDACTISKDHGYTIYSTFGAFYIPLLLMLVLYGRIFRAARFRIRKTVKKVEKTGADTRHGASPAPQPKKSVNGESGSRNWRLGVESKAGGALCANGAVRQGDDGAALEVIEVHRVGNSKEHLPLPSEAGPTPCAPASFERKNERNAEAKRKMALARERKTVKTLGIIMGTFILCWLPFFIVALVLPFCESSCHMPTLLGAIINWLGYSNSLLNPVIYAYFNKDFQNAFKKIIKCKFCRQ
Assay: Agonist activity at human 5HT1A receptor expressed in CHOK1 cells incubated for 16 hrs followed by forskolin-stimulation and measured after 2 hrs by dual-glo luciferase reporter gene assay
Format: cell-based

Structure (SMILES)	EC50 [µM]
CC[C@H]1C[N+]2([O-])CCc3c([nH]c4ccccc34)[C@H]2C[C@@H]1/C(=C\OC)C(=O)OC (stereo partly drawn)	> 100
C=C[C@H]1CN2CCc3c([nH]c4ccccc34)[C@@H]2C[C@@H]1/C(=C\OC)C(=O)OC	> 100
C=C[C@H]1CN2CC[C@]3(O)C(=Nc4ccccc43)[C@H]2C[C@@H]1/C(=C\OC)C(=O)OC	> 100
C=C[C@H]1CN2CCc3c([nH]c4ccccc34)[C@H]2C[C@@H]1[C@@H](CO)C(=O)OC	0.1
C=C[C@H]1[C@H](O[C@@H]2O[C@H](CO)[C@@H](O)[C@H](O)[C@H]2O)OC=C2C(=O)N3CCc4c([nH]c5ccccc45)[C@@H]3C[C@H]21	> 100
C=C[C@H]1[C@H](O[C@@H]2O[C@H](CO)[C@@H](O)[C@H](O)[C@H]2O)OC=C2C(=O)N3CCc4c([nH]c5ccccc45)[C@H]3C[C@H]21	> 100
CC[C@H]1C[N@+]2([O-])CCc3c([nH]c4ccccc34)[C@H]2C[C@H]1/C(=C\OC)C(=O)OC	> 100
C=C[C@H]1CN2CCc3c([nH]c4ccccc34)[C@H]2C[C@@H]1[C@H](CO)C(=O)OC	54.4
CC[C@H]1CN2CCc3c([nH]c4ccccc34)[C@H]2C[C@@H]1[C@H](CO)C(=O)OC	> 100
COC(=O)C1=CO[C@@H](O[C@@H]2O[C@H](CO)[C@@H](O)[C@H](O)[C@H]2O)[C@H]2[C@@H]1C[C@H]1c3[nH]c4ccccc4c3CCN1C[C@@H]2O	1.6
COC(=O)C1=CO[C@@H](O[C@@H]2O[C@H](CO)[C@@H](O)[C@H](O)[C@H]2O)[C@@H]2[C@@H]3CN4CCc5c([nH]c6ccccc56)[C@]4(C[C@H]12)O3	10.2
C=C[C@H]1CN2CC[C@]3(O[C@@H]2C[C@@H]1/C(=C\OC)C(=O)OC)C(=O)Nc1ccccc13	10.1
C/C=C1\CN2CCc3c([nH]c4ccccc34)[C@H]2C[C@@H]1/C(=C\OC)C(=O)OC	> 100
C=C[C@H]1C[N@@+]2([O-])CCc3c([nH]c4ccccc34)[C@H]2C[C@@H]1/C(=C\OC)C(=O)OC	85
CC[C@H]1CN2CCc3c([nH]c4ccccc34)[C@H]2C[C@H]1/C(=C\OC)C(=O)OC	> 100
C=C[C@H]1C[N@@+]2([O-])CCc3c([nH]c4ccccc34)[C@H]2C[C@@H]1[C@@H](CO)C(=O)OC	> 500
C/C=C1/C[N+]2([O-])CCc3c([nH]c4ccccc34)[C@@H]2C[C@@H]1/C(=C\OC)C(=O)OC (stereo partly drawn)	> 100
C/C=C1\C[N@@+]2([O-])CCc3c([nH]c4ccccc34)[C@@H]2C[C@@H]1[C@H](CO)C(=O)OC	11.4
CC[C@H]1CN2CCc3c([nH]c4ccccc34)[C@H]2C[C@@H]1[C@@H](CO)C(=O)OC	2.2
C=C[C@H]1CN2CC[C@@]3(C(=O)Nc4ccccc43)[C@@H]2C[C@@H]1/C(=C\OC)C(=O)OC [ISOCORYNOXEINE]	> 100
CC[C@H]1CN2CC[C@@]3(C(=O)Nc4ccccc43)[C@@H]2C[C@@H]1/C(=C\OC)C(=O)OC [ISORHYNCHOPHYLLINE]	2
CC[C@H]1CN2CC[C@]3(C(=O)Nc4ccccc43)[C@@H]2C[C@@H]1/C(=C\OC)C(=O)OC [RHYNCHOPHYLLINE]	10.3
COC(=O)C1=CO[C@@H](C)[C@@H]2CN3CCc4c([nH]c5ccccc45)[C@@H]3C[C@H]12 [TETRAHYDROALSTONINE]	> 100
